Where “and” joins values, the source holds several entries; their conditions need not be identical. Equal values may be shown once. Where a name gives a salt, the structure may show the parent alone. Read-outs that look alike come from different tables or passages of the source. Blank lines part the entries; values can stand above or below the compound they belong to.
How the values were obtained:
rat VMAT2-His = biological target: T1, rat VMAT2-His (Rattus norvegicus, UniProt Q01827); assay: Differential scanning fluorimetry (DSF) with CPM dye: change of melting temperature of purified VMAT2; type: binding; settings: for ΔTm at 37 µM: compound 0,37 µM; for ΔTm at 10 µM: compound 10 µM; for ΔTm at 30 µM: compound 30 µM; for ΔTm at 90 µM: compound 90 µM; for ΔTm at 270 µM: compound 270 µM
T1 construct: The ORF of rat VMAT2 was subcloned into a pFastBac vector; His; made in house; host or cells: Sf9 insect cells (baculovirus)
T1 sequence (Q01827 whole entry): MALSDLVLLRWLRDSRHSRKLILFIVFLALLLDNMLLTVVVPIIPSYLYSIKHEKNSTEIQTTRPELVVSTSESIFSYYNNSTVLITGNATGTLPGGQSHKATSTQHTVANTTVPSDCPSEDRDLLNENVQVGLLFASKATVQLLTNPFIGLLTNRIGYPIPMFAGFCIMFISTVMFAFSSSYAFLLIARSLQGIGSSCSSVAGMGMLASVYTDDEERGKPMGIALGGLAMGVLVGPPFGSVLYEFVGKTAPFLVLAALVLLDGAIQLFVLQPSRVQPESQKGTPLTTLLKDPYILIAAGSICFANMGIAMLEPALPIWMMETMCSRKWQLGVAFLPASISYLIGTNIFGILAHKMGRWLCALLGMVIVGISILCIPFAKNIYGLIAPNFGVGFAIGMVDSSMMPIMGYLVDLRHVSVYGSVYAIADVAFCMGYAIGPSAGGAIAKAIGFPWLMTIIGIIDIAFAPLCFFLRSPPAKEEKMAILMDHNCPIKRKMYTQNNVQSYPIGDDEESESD
Method: To screen purified VMAT2 by DSF we expressed the rat VMAT2 protein, as VMAT2-His, in SF9 insect cells using the baculovirus expression system. The transporter was solubilized and purified in n-Dodecyl-β-D-maltoside (DDM)/cholesterol hemisuccinate (CHS) micelles by immobilized metal affinity chromatography (IMAC) and size exclusion chromatography (SEC). […] Screening was performed using DSF and the thiol-reactive dye 7-diethylamino-3-(4-maleimidophenyl)-4-methylcoumarin (CPM), an approach that monitors changes to the protein melting temperature (Tm) upon compound binding. Using CPM or other dyes, DSF-based assays have successfully been used in molecular-based screenings[34],[35]. […] DSF screening was performed in 384 well plates using the thiol-sensing dye 7-diethylamino-3-(4-maleimidophenyl)-4-methylcoumarin (CPM) (Merck). […] Protein melting curves were determined using a LightCycler 480 ii RT-PCR system (Roche), with a temperature ramp increasing from 25 to 95 °C at a rate of 2 °C/min. Data analysis was performed using an in-house software that automatically determines the protein midpoint melting temperature (Tm) based on the second derivative of the melting curves or using the HTSDSF explorer as described in ref. [58]. […] 6 μl of this mix was dispensed to each well of 384 well plates using a Multidrop™ Combi Reagent Dispenser (Thermo Scientific). […] All initial hits were then subjected to an initial validation in triplicates with a compound concentration of 200 μM and a ΔTm > 5× the standard deviation (SD) cut off. […] Processing of the data from the primary screening and the concentration-dependent validation was performed as reported.

VMAT2 [1] = biological target: T2, VMAT2 (Rattus norvegicus, UniProt Q01827); settings: 50 µM
T2 sequence (Q01827 whole entry): as above
Method: (§1) We preincubated cells expressing VMAT2 with 50 μM compounds and measured [^3H]-DTBZ binding (5 nM) to the sample (Fig. 3a). […] Hek293 cells were grown and transfected with pcDNA3.1 VMAT2-His as described above. Two days after transfection, cells were harvested, washed and transferred to 96 well MultiScreen FB filter plates (Millipore). […] Cells were washed 3 times with ice cold PBS and 50 µl Ultima Gold LLL (PerkinElmer) was added to each well. […] After a 20 min incubation at 37 °C, cells were washed and [^3H] scintillation counting was performed as described above.

rat VMAT2 = rat VMAT2 (Rattus norvegicus, UniProt Q01827); assay: FFN206 uptake assay in transfected Hek293 cells
Chain of rat VMAT2 (Q01827 whole entry): as above

VMAT2 [2] = biological target: T2, VMAT2; assay: [3H]-DTBZ competition assay in Hek293 cells expressing VMAT2; settings: 50 μM compound;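 further: HEK293 cells transfected with VMAT2, pretreated 30 min with compound, then given 5 nM [3H]-DTBZ for 20 min at 37 °C, bound label read by scintillation counting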
Method: as §1

[3] = Table 1, DSF screening, mean ± SD of triplicates
[4] = Table S2 dose response, read-out: ΔTm
[5] = Table S2 dose response, compound 1,11 µM, read-out: ΔTm
[6] = Table S2 dose response, compound 3,33 µM, read-out: ΔTm

SMILES: COc1ccc(CC(C)(C)NC[C@H](O)c2cc(O)cc3c2OCC(=O)N3)cc1 [Olodaterol]
ΔTm (rat VMAT2-His; [3]): 1.09 ± 0.08 oC
activity (VMAT2 [1]; hek293 cells): 95.6 ± 18.6%
IC50 (rat VMAT2): 4.75 ± 1.36 µM
FFN206 uptake relative to no compound (=1), replicate samples (rat VMAT2; Fig. 2b/2c source data, compound 0.0152 μM, listed as Oldaterol): 1.037 and 1.016 and 1.038 and 1.078
FFN206 uptake relative to no compound (=1), replicate samples (rat VMAT2; Fig. 2b/2c source data, compound 0.1372 μM, listed as Oldaterol): 1.061 and 1.023 and 1.068 and 1.18
FFN206 uptake relative to no compound (=1), replicate samples (rat VMAT2; Fig. 2b/2c source data, compound 0.4115 μM, listed as Oldaterol): 0.9896 and 1.059 and 0.9994 and 0.9917
FFN206 uptake relative to no compound (=1), replicate samples (rat VMAT2; Fig. 2b/2c source data, compound 1.2346 μM, listed as Oldaterol): 0.8954 and 0.9111 and 0.8127 and 1.136
FFN206 uptake relative to no compound (=1), replicate samples (rat VMAT2; Fig. 2b/2c source data, compound 3.7037 μM, listed as Oldaterol): 0.4411 and 0.5591 and 0.475 and 0.4566
FFN206 uptake relative to no compound (=1), replicate samples (rat VMAT2; Fig. 2b/2c source data, compound 11.1111 μM, listed as Oldaterol): 0.3412 and 0.3104 and 0.1707 and 0.3679
FFN206 uptake relative to no compound (=1), replicate samples (rat VMAT2; Fig. 2b/2c source data, compound 100.0000 μM, listed as Oldaterol): 0.0752 and 0.06166 and -0.04341 and -0.00625
FFN206 uptake relative to no compound (=1), replicate samples (rat VMAT2; Fig. 2c source data, compound 0.0017 μM, listed as Oldaterol): 1.069 and 1.105 and 1.094 and 1.258
effect on [3H]-DTBZ binding compared with DMSO control (one-way ANOVA, p < 0.001) (VMAT2 [2]): no statistically significant effect

ΔTm (rat VMAT2-His; [3]): 7.36 ± 0.41 oC
ΔTm at 12 µM (rat VMAT2-His; Table S2 dose response, compound 0,12 µM, read-out: ΔTm): 0.38 °C
ΔTm at 37 µM (rat VMAT2-His; [4]): 0.24 °C
ΔTm at 10 µM (rat VMAT2-His; [4]): 4.77 °C
ΔTm at 30 µM (rat VMAT2-His; [4]): 6.25 °C
ΔTm at 90 µM (rat VMAT2-His; [4]): 6.56 °C
ΔTm at 270 µM (rat VMAT2-His; [4]): 6.79 °C
ΔTm at 11 µM (rat VMAT2-His; [5]): 1.3 °C
ΔTm at 33 µM (rat VMAT2-His; [6]): 4.85 °C
activity (VMAT2 [1]; hek293 cells): 87.5 ± 8.53%
IC50 (rat VMAT2): > 10 µM
VMAT2-specific FFN206 uptake relative to DMSO (=1), replicate samples (rat VMAT2; Fig. 2a source data, 25 μM compound): 0.8521 and 0.6659 and 1.063 and 0.8968
inhibition at 25 µM (rat VMAT2; HEK293, read-out: inhibitory effect on VMAT2 activity): ≤ 50%
effect on [3H]-DTBZ binding compared with DMSO control (one-way ANOVA, p < 0.001) (VMAT2 [2]): no statistically significant effect
SMILES: COc1ccc2[nH]c([S+]([O-])Cc3ncc(C)c(OC)c3C)nc2n1 (stereo not shown) [Tenatoprazole]

IC50 (rat VMAT2): 0.047 ± 0.014 µM
FFN206 uptake relative to no compound (=1), replicate samples (rat VMAT2; Fig. 2b/2c source data, compound 0.0152 μM): 0.9388 and 0.9839 and 0.9625 and 0.9806
FFN206 uptake relative to no compound (=1), replicate samples (rat VMAT2; Fig. 2b/2c source data, compound 0.1372 μM): 0.349 and 0.2794 and 0.2127 and 0.5464
FFN206 uptake relative to no compound (=1), replicate samples (rat VMAT2; Fig. 2b/2c source data, compound 0.4115 μM): 0.2586 and 0.1616 and 0.1258 and 0.3046
FFN206 uptake relative to no compound (=1), replicate samples (rat VMAT2; Fig. 2b/2c source data, compound 1.2346 μM): 0.2328 and 0.1144 and 0.1141 and 0.2682
FFN206 uptake relative to no compound (=1), replicate samples (rat VMAT2; Fig. 2b/2c source data, compound 3.7037 μM): 0.255 and 0.1011 and 0.07806 and 0.2392
FFN206 uptake relative to no compound (=1), replicate samples (rat VMAT2; Fig. 2b/2c source data, compound 11.1111 μM): 0.2251 and 0.08176 and 0.1003 and 0.2777
FFN206 uptake relative to no compound (=1), replicate samples (rat VMAT2; Fig. 2c source data, compound 0.0017 μM): 1.315 and 1.032 and 1.041 and 1.083
SMILES: OCc1cc([C@@H](O)CNCCCCCCOCCOCc2c(Cl)cccc2Cl)ccc1O [Vilanterol]

IC50 (rat VMAT2): 6.55 ± 3.49 µM
SMILES: C=CCOc1ccccc1OCC(O)CNC(C)C (stereo not shown) [Oxprenolol, Oxprenolol hydrochloride]

SMILES: COc1ccccc1OCCNCC(O)COc1cccc2[nH]c3ccccc3c12 (stereo not shown) [Carvedilol]
ΔTm (rat VMAT2-His; [3]): −2.54 ± 0.19 oC
activity (VMAT2 [1]; hek293 cells): 3.22 ± 3.37%
IC50 (rat VMAT2): 0.185 ± 0.157 µM
FFN206 uptake relative to no compound (=1), replicate samples (rat VMAT2; Fig. 2b/2c source data, compound 0.0152 μM, listed as Carvediol): 0.766 and 0.8971 and 0.7075 and 0.9947
FFN206 uptake relative to no compound (=1), replicate samples (rat VMAT2; Fig. 2b/2c source data, compound 0.1372 μM, listed as Carvediol): 0.4929 and 0.5853 and 0.5773 and 0.7378
FFN206 uptake relative to no compound (=1), replicate samples (rat VMAT2; Fig. 2b/2c source data, compound 0.4115 μM, listed as Carvediol): 0.3687 and 0.2376 and 0.3168 and 0.3398
FFN206 uptake relative to no compound (=1), replicate samples (rat VMAT2; Fig. 2b/2c source data, compound 1.2346 μM, listed as Carvediol): 0.1087 and 0.07344
FFN206 uptake relative to no compound (=1), replicate samples (rat VMAT2; Fig. 2b/2c source data, compound 3.7037 μM, listed as Carvediol): 0.1063 and 0.05759 and 0.1334 and 0.2157
FFN206 uptake relative to no compound (=1), replicate samples (rat VMAT2; Fig. 2b/2c source data, compound 11.1111 μM, listed as Carvediol): 0.1084 and -0.01428 and 0.1171 and 0.3099
FFN206 uptake relative to no compound (=1), replicate samples (rat VMAT2; Fig. 2b/2c source data, compound 100.0000 μM, listed as Carvediol): -0.01159 and -0.1032 and -0.03855
FFN206 uptake relative to no compound (=1), replicate samples (rat VMAT2; Fig. 2c source data, compound 0.0017 μM, listed as Carvediol): 0.7452 and 0.9945 and 0.9725 and 0.9441
effect on [3H]-DTBZ binding compared with DMSO control (one-way ANOVA, p < 0.001) (VMAT2 [2]): statistically significantly effect

ΔTm (rat VMAT2-His; [3]): 4.53 ± 0.18 oC
ΔTm at 37 µM (rat VMAT2-His; [4]): 0.99 °C
ΔTm at 10 µM (rat VMAT2-His; [4]): 1.65 °C
ΔTm at 30 µM (rat VMAT2-His; [4]): 2.63 °C
ΔTm at 90 µM (rat VMAT2-His; [4]): 3.49 °C
ΔTm at 270 µM (rat VMAT2-His; [4]): 4.45 °C
ΔTm (rat VMAT2-His; [5]): 1.22 °C
ΔTm (rat VMAT2-His; [6]): 1.22 °C
activity (VMAT2 [1]): 60.7 ± 20.8%
effect on [3H]-DTBZ binding compared with DMSO control (one-way ANOVA, p < 0.001) (VMAT2 [2]): statistically significantly effect
SMILES: CCCNCC(O)COc1ccccc1C(=O)CCc1ccccc1 (stereo not shown) [Propafenone, Propafenone hydrochloride]

ΔTm at 10 µM (rat VMAT2-His; [4]): -0.22 °C
ΔTm at 30 µM (rat VMAT2-His; [4]): -0.24 °C
ΔTm at 90 µM (rat VMAT2-His; [4]): -1.16 °C
ΔTm at 270 µM (rat VMAT2-His; [4]): -3.27 °C
SMILES: CC(NCCC(c1ccccc1)c1ccccc1)c1ccccc1 (stereo not shown) [Fendiline hydrochloride]
